In patent US20060159732A1, “Antioxidant wound dressing materials” (priority 2003, published 2006):

Experiments:
[1] = DPPH test (Procedure 1), free radical / antioxidant activity; settings: positive control at 10^-4M; percentage reduction of absorbance at 524 nm relative to the control after 4 hours
Procedure: Preferably, the material according to the present invention has a free radical activity, that is to say an antioxidant activity, of at least about 15% in the diphenylpicrylhydrazyl (DPPH) test, measured as percentage reduction in absorbance at 524 nm after 4 hours of a 0.5% w/v dispersion of the polysaccharide in 10^−4M DPPH, as described further hereinbelow in Procedure 1. Preferably the percentage reduction in absorbance in the DPPH test (after correction for any absorbance by the dye) is at least about 25%, more preferably at least about 50%, and most preferably at least about 75%.
The ability of the wound dressing materials to react with and remove oxygen containing free radicals is assessed by the DPPH test described in WO94/13333, the entire content of which is expressly incorporated herein by reference. […]
Briefly, the wound dressing material under test (2.5 mg; 5 mg; & 25 mg sample sizes) was suspended in 2.5 ml of 0.1M pH 7.0 phosphate buffer. […] The samples were assessed by measurement of their light absorbance at 524 nm over 6 hours in comparison with a control, particular attention being paid to the figure after 4 hours. The percentage reduction of absorbance relative to the control after 4 hours gives the DPPH test value, with a reproducibility generally of ±5%. […]

[2] = tested on: Pseudomonas aeruginosa (ATCC 27853 and various PSI strains); test: Zone of inhibition test (Procedure 2) on Pseudomonas aeruginosa; assay type: cell-based; settings: DSA plates, 37° C., every 24 hours over the test period (72 hours)
Procedure: (§1) Six 2 cm×2 cm squares of each sample are cut out in sterile conditions. On day one of the experiment, cultures of both Pseudomonas aeruginosa (ATCC 27853 and various PSI strains) and Staphylococcus aureus (provided by the Dept of Clinical Microbiology and Pathology) are incubated aerobically at 37° C. for 24 hours on Diagnostic Sensitivity Agar (DSA). After 24 hours test samples are each placed on a DSA plate and immediately wetted with 0.5 mls of a buffer solution. Three squares of sample are placed on plates inoculated with Pseudomonas aeruginosa and three are placed on plates inoculated with Staphylococcus aureus. The plates are then incubated at 37° C. for 24 hours. The zone of inhibited growth around the sample is then measured using calipers, and the test sample is placed on a new inoculated DSA plate. A swab test is carried out on the area beneath the sample to determine if the sample is bacteriostatic if not bactericidal by smearing the swab on a DSA plate and incubating it for 24 hours and then examining the growth.

Staphylococcus aureus = test: Zone of inhibition test (Procedure 2) on Staphylococcus aureus; assay type: cell-based; settings: DSA plates, 37° C., every 24 hours over the test period (72 hours)
Procedure: as §1

Row | SMILES | DPPH test value [1] | zone of inhibition [2] | zone of inhibition (Staphylococcus aureus)
1 | O=C1O[C@H]([C@@H](O)CO)C(O)=C1O [positive control, Ascorbic acid] | 80-90% |  | 
2 | O=[N+]([O-])[O-].[Ag+] [silver nitrate solution (0.5%), silver nitrate] |  | zones of inhibition were observed | zones of inhibition were observed
